≈ marks a conversion by molar mass, not a printed value.
Legend:
Assay in all cases: MIC microbroth dilution
Assay type in all cases: cell-based
E. coli GC 2894 (AmpC) = settings: Escherichia coli, β-lactamase class C, MHBII, 35° C. 18 hr, read-out: Minimal Inhibitory Concentration
Procedure, shortened: (§1)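 Susceptibility determined by the NCCLS-recommended microbroth dilution method, using Mueller-Hinton II broth with 18-22 hours incubation at 35 C in ambient air.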

[1] = system: K. pneumoniae GC 7636 TEM-1 KPC-2 SHV-12; settings: Klebsiella pneumoniae, 18 h, read-out: Minimal Inhibitory Concentration
Procedure, shortened: as §1

[2] = system: K. pn GC 6651 (TEM-1 + SHV-1 + SHV-5); settings: Klebsiella pneumoniae, β-lactamase class A, A (ESBL), MHBII, 35° C. 18 hr, read-out: Minimal Inhibitory Concentration
Procedure, shortened: as §1

[3] = system: P. aeruginosa PT 9025 PTZ-R; settings: Pseudomonas aeruginosa, PT9025PTZR, 18 h, read-out: Minimal Inhibitory Concentration
Procedure, shortened: as §1

[4] = system: C. freundii GC 4164 Inducible AmpC; settings: Citrobacter freundii, β-lactamase class C, MHBII, 35° C. 18 hr, read-out: Minimal Inhibitory Concentration
Procedure, shortened: as §1

[5] = system: E. aerogenes GC 7039 TEM-4, Amp C inducable; settings: Klebsiella aerogenes, β-lactamase class A (ESBL), MHBII, 35° C. 18 hr, read-out: Minimal Inhibitory Concentration
Procedure, shortened: as §1

[6] = system: E. coli GC 6197 (TEM-1 + SHV-7 + CMY-2); settings: Escherichia coli, β-lactamase class A, A (ESBL), C, MHBII, 35° C. 18 hr, read-out: Minimal Inhibitory Concentration
Procedure, shortened: as §1

[7] = system: K. oxytoca GC 7627 TEM-1 K1 KPC-2; settings: Klebsiella oxytoca, 18 h, read-out: Minimal Inhibitory Concentration
Procedure, shortened: as §1

E. coli GC 2847 (TEM-1) = settings: Escherichia coli, β-lactamase class A, MHBII, 35° C. 18 hr, read-out: Minimal Inhibitory Concentration
Procedure, shortened: as §1

[8] = system: A. baumannii GC 7685 TEM-1; settings: Acinetobacter baumannii, GC7685TEM1, 18 h, read-out: Minimal Inhibitory Concentration
Procedure, shortened: as §1

[9] = system: E. aerogenes 1697-MP GC 7845 AmpC; settings: Klebsiella aerogenes; E. aerogenes GC 7845; β-lactamase class C; MHBII, 35° C. 18 hr; read-out: Minimal Inhibitory Concentration
Procedure, shortened: as §1

K. pn GC 1516 (TEM-26) = settings: Klebsiella pneumoniae, β-lactamase class A (ESBL), MHBII, 35° C. 18 hr, read-out: Minimal Inhibitory Concentration
Procedure, shortened: as §1

[10] = system: E. cloacae GC 7065 TEM-26, SHV-12 Amp C inducable; settings: Enterobacter cloacae, β-lactamase class A (ESBL), MHBII, 35° C. 18 hr, read-out: Minimal Inhibitory Concentration
Procedure, shortened: as §1

[11] = system: K. pneumoniae GC 7820 Act 1; settings: Klebsiella pneumoniae, GC7820ACT1, β-lactamase class C, MHBII, 35° C. 18 hr, read-out: Minimal Inhibitory Concentration
Procedure, shortened: as §1

[12] = system: E. coli GC 6260 (TEM-1 + SHV-5); settings: Escherichia coli, β-lactamase class A, A (ESBL), MHBII, 35° C. 18 hr, read-out: Minimal Inhibitory Concentration
Procedure, shortened: as §1

E. coli GC 2009 (TEM-10) = settings: Escherichia coli, 18 h, read-out: Minimal Inhibitory Concentration
Procedure, shortened: as §1

[13] = system: E. cloacae GC 1712 AmpC-inducible; settings: Enterobacter cloacae, β-lactamase class C, MHBII, 35° C. 18 hr, read-out: Minimal Inhibitory Concentration
Procedure, shortened: as §1

[14] = system: S. typhimurium GC 4198 SHV-1 CTX-M-5; settings: Salmonella enterica, 18 h, read-out: Minimal Inhibitory Concentration
Procedure, shortened: as §1

E. coli GC 2844 (none) = settings: Escherichia coli, β-lactamase class none, MHBII, 35° C. 18 hr, read-out: Minimal Inhibitory Concentration
Procedure, shortened: as §1

E. coli GC 6368 (SHV-7) = settings: Escherichia coli, β-lactamase class A (ESBL), MHBII, 35° C. 18 hr, read-out: Minimal Inhibitory Concentration
Procedure, shortened: as §1

[15] = system: K. pn GC 6657 (TEM-1 + SHV-27); settings: Klebsiella pneumoniae, β-lactamase class A, A (ESBL), MHBII, 35° C. 18 hr, read-out: Minimal Inhibitory Concentration
Procedure, shortened: as §1

[16] = system: K. pneumoniae GC 7824 Fox 5; settings: Klebsiella pneumoniae, GC7824FOX5, β-lactamase class C, MHBII, 35° C. 18 hr, read-out: Minimal Inhibitory Concentration
Procedure, shortened: as §1

[17] = system: K. pn GC 3057 (CAZ-R; P/T-R); settings: Klebsiella pneumoniae, β-lactamase class A, A (ESBL), MHBII, 35° C. 18 hr, read-out: Minimal Inhibitory Concentration
Procedure, shortened: as §1

[18] = system: E. coli ATCC 25922 (none); settings: Escherichia coli, ATCC25922, β-lactamase class none, MHBII, 35° C. 18 hr, read-out: Minimal Inhibitory Concentration
Procedure, shortened: as §1

[19] = system: E. cloacae PT 1494 Inducible AmpC; settings: Enterobacter cloacae, β-lactamase class C, MHBII, 35° C. 18 hr, read-out: Minimal Inhibitory Concentration
Procedure, shortened: as §1

Q: CO/N=C(\C(=O)N[C@@H]1C(=O)N2C(C(=O)[O-])=C(C[N+]3(C)CCCC3)CS[C@H]12)c1csc(N)n1 [Cefepime] was tested. Which MIC (E. coli GC 2894 (AmpC)) did it give?
A: The MIC was 2 µg/mL (≈ 4.16 µM).

Q: And the MIC [1]?
A: The MIC was > 16 µg/mL.

Q: What about the MIC [2] of the same molecule?
A: The MIC was 2 µg/mL (≈ 4.16 µM).

Q: What about the MIC [3] of the same molecule?
A: The MIC was > 16 µg/mL.

Q: And the MIC [4]?
A: The MIC was 2 µg/mL (≈ 4.16 µM).

Q: What about the MIC [5] of the same molecule?
A: Its MIC is > 16 µg/mL.

Q: And the MIC [6]?
A: Its MIC is > 16 µg/mL.

Q: And the MIC [7]?
A: The MIC was > 16 µg/mL.

Q: What about the MIC (E. coli GC 2847 (TEM-1)) of the same molecule?
A: Its MIC is 0.12 µg/mL (≈ 0.25 µM).

Q: What about the MIC [8] of the same molecule?
A: The MIC was > 16 µg/mL.

Q: And the MIC [9]?
A: The MIC was 0.5 µg/mL (≈ 1.04 µM).

Q: What about the MIC (K. pn GC 1516 (TEM-26)) of the same molecule?
A: The MIC was > 16 µg/mL.

Q: What about the MIC [10] of the same molecule?
A: Its MIC is 16 µg/mL (≈ 33.3 µM).

Q: What about the MIC [11] of the same molecule?
A: The MIC was 0.5 µg/mL (≈ 1.04 µM).

Q: And the MIC [12]?
A: Its MIC is > 16 µg/mL.

Q: What about the MIC (E. coli GC 2009 (TEM-10)) of the same molecule?
A: The MIC was > 16 µg/mL.

Q: What about the MIC [13] of the same molecule?
A: Its MIC is 0.25 µg/mL (≈ 0.52 µM).

Q: What about the MIC [14] of the same molecule?
A: The MIC was > 16 µg/mL.

Q: What about the MIC (E. coli GC 2844 (none)) of the same molecule?
A: Its MIC is 0.06 µg/mL (≈ 0.125 µM).

Q: And the MIC (E. coli GC 6368 (SHV-7))?
A: Its MIC is 2 µg/mL (≈ 4.16 µM).

Q: What about the MIC [15] of the same molecule?
A: The MIC was 0.12 µg/mL (≈ 0.25 µM).

Q: And the MIC [16]?
A: The MIC was 2 µg/mL (≈ 4.16 µM).

Q: And the MIC [17]?
A: Its MIC is 16 µg/mL (≈ 33.3 µM).

Q: And the MIC [18]?
A: Its MIC is 0.03 µg/mL (≈ 0.0624 µM).

Q: What about the MIC [19] of the same molecule?
A: Its MIC is 0.25 µg/mL (≈ 0.52 µM).
